In patent US12459922B2 (Gilead Sciences, Inc., priority 2022, dated 2025) one finds IC50 and EC50 data, which are given here for 17 compounds.

In general, IC50 refers to the midpoint of a concentration-inhibition curve. As usually defined, the EC50 is the concentration at which the effect is half-maximal.

In assay [1] the target is T1, PARP7 (Homo sapiens, UniProt Q7Z3E1).
T1 sequence (Q7Z3E1 1-657): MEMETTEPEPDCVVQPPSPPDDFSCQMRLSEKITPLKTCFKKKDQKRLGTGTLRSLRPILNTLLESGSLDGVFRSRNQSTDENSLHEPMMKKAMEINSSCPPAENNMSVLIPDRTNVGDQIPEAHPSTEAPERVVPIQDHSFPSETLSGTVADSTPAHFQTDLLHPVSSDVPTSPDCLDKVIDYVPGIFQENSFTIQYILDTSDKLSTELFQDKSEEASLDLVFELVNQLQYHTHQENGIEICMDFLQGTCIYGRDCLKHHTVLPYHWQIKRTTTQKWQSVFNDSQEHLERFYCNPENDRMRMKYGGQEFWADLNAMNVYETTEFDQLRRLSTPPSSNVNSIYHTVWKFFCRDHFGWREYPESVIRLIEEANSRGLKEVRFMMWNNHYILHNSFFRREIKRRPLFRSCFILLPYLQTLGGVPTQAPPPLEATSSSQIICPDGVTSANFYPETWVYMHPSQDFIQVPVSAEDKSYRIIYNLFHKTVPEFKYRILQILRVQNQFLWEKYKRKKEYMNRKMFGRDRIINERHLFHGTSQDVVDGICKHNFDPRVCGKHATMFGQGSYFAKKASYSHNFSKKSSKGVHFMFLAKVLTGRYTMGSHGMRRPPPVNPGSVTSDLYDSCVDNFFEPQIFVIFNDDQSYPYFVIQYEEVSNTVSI
In words: Probe Displacement Assay for PARP7 (MSD electrochemiluminescent, biotinylated probe RBNO11147). Conditions: displacement of biotinylated probe RBNO11147 from PARP7 NAD+-binding site; read-out: MSD ProbeDisp PARP7 IC50.
Method: Displacement of a biotinylated probe (RBNO11147; Wigle et al., Cell Chemical Biology, 2020, pp. 877-887) from the PARP7 NAD+-binding site was measured in vitro using a Mesoscale Discovery electrochemiluminescent assay. […] Next, 10 ml of 10 nM PARP7 protein incubated for 1 hour at room temperature with a dose response curve of each test compound in a Greiner LDV polypropylene plate (#781201) is added to the MSD plate containing the immobilized probe. The interaction is allowed to reach equilibrium for 1.5 hours, and then 10 ml of SULFO-TAG labeled anti-GST antibody (Cat #R32AA-1) is added to each well and allowed to incubate for an additional 1.5 hours at room temperature. Finally, 10 ml of MSD read buffer T (4×, Cat. #R92C-1) is added to each well using a Bravo liquid handler to prevent air bubbles in the wells, and the plates are subsequently read in an MSD instrument. Light intensity is then measured to quantify the amount of PARP7 bound to the immobilized probe on the plate.

Assay [2] concerns endogenous cellular STAT1 (phosphorylated at Tyr701) in NCI-H1373 cells. In words: Phospho-STAT1 (Tyr701) LANCE Ultra TR-FRET Detection Assay. Type of assay: cell-based. Conditions: Homo sapiens, NCI-H1373, 48 h, phospho-STAT1 (Tyr701) induction, read-out: NH1373 pSTAT1 EC50. (Time-resolved FRET reads energy transfer from a long-lived donor to a nearby acceptor.)

`Nc1nc(-c2cc3ccn(CCC[C@H](COC(F)F)Nc4cn[nH]c(=O)c4C(F)(F)F)c(=O)c3cc2F)ncc1C(F)F` [Example 376, (R)-6-(4-amino-5-(difluoromethyl)pyrimidin-2-yl)-2-(5-(difluoromethoxy)-4-((6-oxo-5-(trifluoromethyl)-1,6-dihydropyridazin-4-yl)amino)pentyl)-7-fluoroisoquinolin-1(2H)-one]: the IC50 in assay [1] worked out at 0.339 nM. Further, the EC50 in assay [2] amounted to 3.03 nM.
Taken in the same sequence, the figures for `C[C@@H](CCCn1ccc2cc(-c3ccccn3)c(F)cc2c1=O)Nc1cn[nH]c(=O)c1C(F)(F)F` [Example 31, 7-fluoro-2-[(4S)-4-[[6-oxo-5-(trifluoromethyl)-1H-pyridazin-4-yl]amino]pentyl]-6-(2-pyridyl)isoquinolin-1-one] were 0.2 nM and 2180 nM.
`C[C@@H](CCCn1ccc2cc(-c3cccc4c3OCCO4)c(F)cc2c1=O)Nc1cn[nH]c(=O)c1C(F)(F)F` [Example 27, (S)-6-(2,3-dihydrobenzo[b][1,4]dioxin-5-yl)-7-fluoro-2-(4-((6-oxo-5-(trifluoromethyl)-1,6-dihydropyridazin-4-yl)amino)pentyl)isoquinolin-1(2H)-one]: the IC50 in assay [1] was found to be 25 nM. In addition, the EC50 in assay [2] stood at 10000 nM.
The like results for `CC[C@@H](CCCn1ccc2cc(-c3ncc(Cl)c(N)n3)c(F)cc2c1=O)Nc1cn[nH]c(=O)c1C(F)(F)F` [Example 303, (S)-6-(4-amino-5-chloropyrimidin-2-yl)-7-fluoro-2-(4-((6-oxo-5-(trifluoromethyl)-1,6-dihydropyridazin-4-yl)amino)hexyl)isoquinolin-1(2H)-one] were, in that order, 0.273 nM and 3.43 nM.
Taken in the same sequence, the figures for `O=c1[nH]ncc(NC2(CCCn3ccc4cc(-c5ncc(C(F)(F)F)cn5)c(F)cc4c3=O)CC2)c1C(F)(F)F` [Example 61, 7-fluoro-2-(3-(1-((6-oxo-5-(trifluoromethyl)-1,6-dihydropyridazin-4-yl)amino)cyclopropyl)propyl)-6-(5-(trifluoromethyl)pyrimidin-2-yl)isoquinolin-1(2H)-one] were 1.27 nM and 638 nM.
Taken in the same sequence, the figures for `C[C@@H](CCCn1ccc2cc(-c3ccc(C4(C(F)(F)F)CC4)cn3)cc(F)c2c1=O)Nc1cn[nH]c(=O)c1C(F)(F)F` [Example 39, 8-fluoro-2-[(4S)-4-[[6-oxo-5-(trifluoromethyl)-1H-pyridazin-4-yl]amino]pentyl]-6-[5-[1-(trifluoromethyl)cyclopropyl]-2-pyridyl]isoquinolin-1-one] were 2.5 nM and 890 nM.
On to `O=c1[nH]ncc(N[C@H](CCCn2ccc3cc(-c4ncc(C(F)F)cn4)c(F)cc3c2=O)COC(F)F)c1C(F)(F)F` [Example 377, (R)-2-(5-(difluoromethoxy)-4-((6-oxo-5-(trifluoromethyl)-1,6-dihydropyridazin-4-yl)amino)pentyl)-6-(5-(difluoromethyl)pyrimidin-2-yl)-7-fluoroisoquinolin-1(2H)-one], for which the IC50 in assay [1] is 0.179 nM. In addition, the half-maximal effective concentration (EC50) in assay [2] was 1.15 nM.
The like results for `C[C@@H](CCCn1ccc2cc(-c3ccc(C(N)C(F)(F)F)cn3)c(F)cc2c1=O)Nc1cn[nH]c(=O)c1C(F)(F)F` (stereo partly drawn) [Example 50, 6-[5-(1-amino-2,2,2-trifluoro-ethyl)-2-pyridyl]-7-fluoro-2-[(4S)-4-[[6-oxo-5-(trifluoromethyl)-1H-pyridazin-4-yl]amino]pentyl]isoquinolin-1-one] were, in that order, 2.13 nM and 2760 nM.
On to `C[C@@H](CCCn1ccc2cc(-c3ncc(C(F)(F)F)c(N4C[C@@H](O)[C@@H]4C)n3)c(F)cc2c1=O)Nc1cn[nH]c(=O)c1C(F)(F)F` [Example 311, 7-fluoro-6-(4-((2S,3R)-3-hydroxy-2-methylazetidin-1-yl)-5-(trifluoromethyl)pyrimidin-2-yl)-2-((S)-4-((6-oxo-5-(trifluoromethyl)-1,6-dihydropyridazin-4-yl)amino)pentyl)isoquinolin-1(2H)-one], for which, in assay [1], the IC50 is 0.258 nM. Besides, the concentration for a half-maximal effect (EC50) in assay [2] worked out at 14 nM.
The like results for `C[C@@H](CCCn1cnc2cc(-c3ncc(C(F)(F)F)c(N4CC(C#N)C4)n3)c(F)cc2c1=O)Nc1cn[nH]c(=O)c1C(F)(F)F` [Example 206] were, in that order, 0.188 nM and 9.34 nM.
Taken in the same sequence, the figures for `C[C@@H](CCCn1cnc2cc(-c3ncc(F)cn3)c(F)cc2c1=O)Nc1cn[nH]c(=O)c1C(F)(F)F` [Example 60, 6-fluoro-7-(5-fluoropyrimidin-2-yl)-3-[(4S)-4-[[6-oxo-5-(trifluoromethyl)-1H-pyridazin-4-yl]amino]pentyl]quinazolin-4-one] were 0.897 nM and 772 nM.
As to `C[C@@H](CCCn1ccc2cc(-c3cc4ccccn4n3)c(F)cc2c1=O)Nc1cn[nH]c(=O)c1C(F)(F)F` [Example 304, (S)-7-fluoro-2-(4-((6-oxo-5-(trifluoromethyl)-1,6-dihydropyridazin-4-yl)amino)pentyl)-6-(pyrazolo[1,5-a]pyridin-2-yl)isoquinolin-1(2H)-one], the IC50 in assay [1] amounted to 0.199 nM. In assay [2], the EC50 came out at 25.6 nM.
In the case of `C[C@@H](CCCn1ncc2cc(-c3ncc(C(F)(F)F)cn3)ccc2c1=O)Nc1cn[nH]c(=O)c1C(F)(F)F` [Example 4, 2-[(4S)-4-[[6-oxo-5-(trifluoromethyl)-1H-pyridazin-4-yl]amino]pentyl]-6 [5-(trifluoromethyl)pyrimidin-2-yl]phthalazin-1-one], the IC50 in assay [1] was determined as 0.2 nM. For the same compound, in assay [2], the EC50 stood at 95.6 nM.
As for `C[C@@H](CCCn1ccc2cc(-c3ncc(C(F)(F)F)cn3)c(F)cc2c1=O)Nc1cn[nH]c(=O)c1C(F)(F)F` [Example 8, 7-fluoro-2-[(4S)-4-[[6-oxo-5-(trifluoromethyl)-1H-pyridazin-4-yl]amino]pentyl]-6-[5-(trifluoromethyl)pyrimidin-2-yl]isoquinolin-1-one], the IC50 in assay [1] was 0.2 nM. Also, the EC50 in assay [2] came out at 19.2 nM.
Turning to `C[C@@H](CCCn1ccc2cc(-c3ncc(C(F)F)c(N)n3)c(F)cc2c1=O)Nc1cn[nH]c(=O)c1C(F)(F)F` [Example 104, 6-[4-amino-5-(difluoromethyl)pyrimidin-2-yl]-7-fluoro-2-[(4S)-4-[[6-oxo-5-(trifluoromethyl)-1H-pyridazin-4-yl]amino]pentyl]isoquinolin-1-one], the IC50 in assay [1] worked out at 0.33 nM. For the same compound, in assay [2], the EC50 was found to be 4.6 nM.
As to `C[C@@H](CCCn1ccc2cc(-c3ccc(C(F)(F)F)cn3)ncc2c1=O)Nc1cn[nH]c(=O)c1C(F)(F)F` [Example 13, 2-[(4S)-4-[[6-oxo-5-(trifluoromethyl)-1H-pyridazin-4-yl]amino]pentyl]-6-[5 (trifluoromethyl)-2-pyridyl]-2,7-naphthyridin-1-one], the half-maximal inhibitory concentration (IC50) in assay [1] was found to be 3.7 nM. Moreover, the EC50 in assay [2] was 10000 nM.
As for `C[C@@H](CCCn1ccc2cc(-c3ncc(C(F)(F)F)c(N4C[C@@H](O)C[C@@H]4C)n3)c(F)cc2c1=O)Nc1cn[nH]c(=O)c1C(F)(F)F` [Example 312, 7-fluoro-6-(4-((2S,4S)-4-hydroxy-2-methylpyrrolidin-1-yl)-5-(trifluoromethyl)pyrimidin-2-yl)-2-((S)-4-((6-oxo-5-(trifluoromethyl)-1,6-dihydropyridazin-4-yl)amino)pentyl)isoquinolin-1(2H)-one], in assay [1], the IC50 is 0.623 nM. In addition, the EC50 in assay [2] stood at 70 nM.
